According to ChEMBL document CHEMBL1201862, “PubChem BioAssay data set” (2004):
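Test compounds were applied to cells in 96-well plates for 48 hours at 5 doses. At the GI50, growth is halved.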 Active and inactive are the calls of the source. Cut-off read from the data, not from the text of the source: active = GI50 up to about 1.1 µM and inactive = higher.

Tests used:
Assay in all cases: DTP human tumour cell line panel, 48 h
Malme-3M = tested on: Malme-3M
Hs-578T = tested on: Hs-578T
SW-620 = tested on: SW-620
ACHN = tested on: ACHN
UACC-62 = tested on: UACC-62
SNB-75 = tested on: SNB-75
HOP-92 = tested on: HOP-92
TK-10 = tested on: TK-10
EKVX = tested on: EKVX
OVCAR-8 = tested on: OVCAR-8
NCI-H522 = tested on: NCI-H522
NCI-H460 = tested on: NCI-H460
SF-295 = tested on: SF-295
RXF 393 = tested on: RXF 393
KM12 = tested on: KM12
HOP-62 = tested on: HOP-62
OVCAR-3 = tested on: OVCAR-3
SK-MEL-5 = tested on: SK-MEL-5
DU-145 = tested on: DU-145
PC-3 = tested on: PC-3
HCC 2998 = tested on: HCC 2998
RPMI-8226 = tested on: RPMI-8226
M14 = tested on: M14
MDA-MB-435 = tested on: MDA-MB-435
MOLT-4 = tested on: MOLT-4
NCI-H23 = tested on: NCI-H23
U-251 = tested on: U-251
A549 = tested on: A549
UO-31 = tested on: UO-31
A498 = tested on: A498
MDA-MB-231 = tested on: MDA-MB-231
LOX IMVI = tested on: LOX IMVI
CAKI-1 = tested on: CAKI-1
SN12C = tested on: SN12C
IGROV-1 = tested on: IGROV-1
SK-OV-3 = tested on: SK-OV-3
786-0 = tested on: 786-0
NCI-H226 = tested on: NCI-H226
MDA-N = tested on: MDA-N
NCI/ADR-RES = tested on: NCI/ADR-RES
T47D = tested on: T47D
COLO 205 = tested on: COLO 205
SNB-19 = tested on: SNB-19
K562 = tested on: K562
MCF7 = tested on: MCF7
SF-268 = tested on: SF-268
OVCAR-4 = tested on: OVCAR-4
HL-60 = tested on: HL-60
HCT-15 = tested on: HCT-15
BT-549 = tested on: BT-549
SK-MEL-28 = tested on: SK-MEL-28
OVCAR-5 = tested on: OVCAR-5
HCT-116 = tested on: HCT-116
HT-29 = tested on: HT-29
UACC-257 = tested on: UACC-257
CCRF-CEM = tested on: CCRF-CEM
SF-539 = tested on: SF-539
SK-MEL-2 = tested on: SK-MEL-2

CC(C)CN(CC#N)CC(C)C
GI50 (Malme-3M): > 100 µM (inactive) | GI50 (Hs-578T): > 100 µM (inactive) | GI50 (SW-620): > 100 µM (inactive) | GI50 (ACHN): > 100 µM (inactive) | GI50 (UACC-62): > 100 µM (inactive) | GI50 (SNB-75): > 100 µM (inactive) | GI50 (HOP-92): > 100 µM (inactive) | GI50 (TK-10): > 100 µM (inactive) | GI50 (EKVX): > 100 µM (inactive) | GI50 (OVCAR-8): > 100 µM (inactive) | GI50 (NCI-H522): > 100 µM (inactive) | GI50 (NCI-H460): > 100 µM (inactive) | GI50 (SF-295): > 100 µM (inactive) | GI50 (RXF 393): > 100 µM (inactive) | GI50 (KM12): > 100 µM (inactive) | GI50 (HOP-62): > 100 µM (inactive) | GI50 (OVCAR-3): > 100 µM (inactive) | GI50 (SK-MEL-5): > 100 µM (inactive) | GI50 (DU-145): > 100 µM (inactive) | GI50 (PC-3): > 100 µM (inactive) | GI50 (HCC 2998): > 100 µM (inactive) | GI50 (RPMI-8226): 48.9 µM (inactive) | GI50 (M14): > 100 µM (inactive) | GI50 (MDA-MB-435): > 100 µM (inactive) | GI50 (MOLT-4): > 100 µM (inactive) | GI50 (NCI-H23): > 100 µM (inactive) | GI50 (U-251): > 100 µM (inactive) | GI50 (A549): > 100 µM (inactive) | GI50 (UO-31): > 100 µM (inactive) | GI50 (A498): > 100 µM (inactive) | GI50 (MDA-MB-231): > 100 µM (inactive) | GI50 (LOX IMVI): > 100 µM (inactive) | GI50 (CAKI-1): > 100 µM (inactive) | GI50 (SN12C): > 100 µM (inactive) | GI50 (IGROV-1): > 100 µM (inactive) | GI50 (SK-OV-3): > 100 µM (inactive) | GI50 (786-0): > 100 µM (inactive) | GI50 (NCI-H226): > 100 µM (inactive) | GI50 (MDA-N): > 100 µM (inactive) | GI50 (NCI/ADR-RES): > 100 µM (inactive) | GI50 (T47D): > 100 µM (inactive) | GI50 (COLO 205): > 100 µM (inactive) | GI50 (SNB-19): > 100 µM (inactive) | GI50 (K562): > 100 µM (inactive) | GI50 (MCF7): > 100 µM (inactive) | GI50 (SF-268): > 100 µM (inactive) | GI50 (OVCAR-4): > 100 µM (inactive) | GI50 (HL-60): > 100 µM (inactive) | GI50 (HCT-15): > 100 µM | GI50 (BT-549): > 100 µM (inactive) | GI50 (SK-MEL-28): > 100 µM (inactive) | GI50 (OVCAR-5): > 100 µM (inactive) | GI50 (HCT-116): > 100 µM (inactive) | GI50 (HT-29): > 100 µM (inactive) | GI50 (UACC-257): > 100 µM (inactive)

Nc1ncnc2c1ccn2CC#CCO
GI50 (Malme-3M): > 100 µM (inactive) | GI50 (Hs-578T): > 100 µM (inactive) | GI50 (SW-620): > 100 µM (inactive) | GI50 (ACHN): > 100 µM (inactive) | GI50 (UACC-62): > 100 µM (inactive) | GI50 (SNB-75): > 100 µM (inactive) | GI50 (HOP-92): > 100 µM (inactive) | GI50 (TK-10): > 100 µM (inactive) | GI50 (EKVX): > 100 µM (inactive) | GI50 (CCRF-CEM): > 100 µM (inactive) | GI50 (OVCAR-8): > 100 µM (inactive) | GI50 (NCI-H522): > 100 µM (inactive) | GI50 (NCI-H460): > 100 µM (inactive) | GI50 (SF-295): > 100 µM (inactive) | GI50 (RXF 393): 97.3 µM (inactive) | GI50 (KM12): > 100 µM (inactive) | GI50 (HOP-62): > 100 µM (inactive) | GI50 (OVCAR-3): > 100 µM (inactive) | GI50 (SK-MEL-5): > 100 µM (inactive) | GI50 (DU-145): > 100 µM (inactive) | GI50 (PC-3): > 100 µM (inactive) | GI50 (HCC 2998): > 100 µM (inactive) | GI50 (RPMI-8226): > 100 µM (inactive) | GI50 (M14): > 100 µM (inactive) | GI50 (SF-539): > 100 µM (inactive) | GI50 (MDA-MB-435): > 100 µM (inactive) | GI50 (MOLT-4): > 100 µM (inactive) | GI50 (NCI-H23): > 100 µM (inactive) | GI50 (U-251): > 100 µM (inactive) | GI50 (A549): > 100 µM (inactive) | GI50 (UO-31): > 100 µM (inactive) | GI50 (A498): > 100 µM (inactive) | GI50 (MDA-MB-231): > 100 µM (inactive) | GI50 (LOX IMVI): > 100 µM (inactive) | GI50 (CAKI-1): > 100 µM (inactive) | GI50 (SN12C): > 100 µM (inactive) | GI50 (IGROV-1): > 100 µM (inactive) | GI50 (SK-OV-3): > 100 µM (inactive) | GI50 (786-0): > 100 µM (inactive) | GI50 (MDA-N): > 100 µM (inactive) | GI50 (NCI/ADR-RES): > 100 µM (inactive) | GI50 (T47D): > 100 µM (inactive) | GI50 (SK-MEL-2): > 100 µM (inactive) | GI50 (COLO 205): > 100 µM (inactive) | GI50 (SNB-19): > 100 µM (inactive) | GI50 (K562): > 100 µM (inactive) | GI50 (MCF7): > 100 µM (inactive) | GI50 (SF-268): > 100 µM (inactive) | GI50 (OVCAR-4): > 100 µM (inactive) | GI50 (HL-60): 93.8 µM (inactive) | GI50 (HCT-15): > 100 µM | GI50 (BT-549): > 100 µM (inactive) | GI50 (SK-MEL-28): > 100 µM (inactive) | GI50 (OVCAR-5): > 100 µM (inactive) | GI50 (HCT-116): > 100 µM (inactive) | GI50 (HT-29): > 100 µM (inactive) | GI50 (UACC-257): > 100 µM (inactive)

CC1OC(OC2C(O[C@H]3CC[C@@H]4C(=CC[C@@H]5[C@@]4(C)C(=O)C[C@]4(C)[C@@H]([C@H](C)CC[C@@H](O)C(C)(C)O)CC[C@@]54C)C3(C)C)OC(CO)C(O)C2O)C(O)C(O)C1O (some centres undefined)
GI50 (Malme-3M): > 100 µM (inactive) | GI50 (Hs-578T): > 100 µM (inactive) | GI50 (SW-620): 35.3 µM (inactive) | GI50 (ACHN): > 100 µM (inactive) | GI50 (UACC-62): > 100 µM (inactive) | GI50 (SNB-75): > 100 µM (inactive) | GI50 (HOP-92): > 100 µM (inactive) | GI50 (TK-10): > 100 µM (inactive) | GI50 (EKVX): > 100 µM (inactive) | GI50 (CCRF-CEM): 79.3 µM (inactive) | GI50 (OVCAR-8): > 100 µM (inactive) | GI50 (NCI-H522): > 100 µM (inactive) | GI50 (NCI-H460): > 100 µM (inactive) | GI50 (SF-295): > 100 µM (inactive) | GI50 (RXF 393): > 100 µM (inactive) | GI50 (KM12): > 100 µM (inactive) | GI50 (HOP-62): > 100 µM (inactive) | GI50 (OVCAR-3): > 100 µM (inactive) | GI50 (SK-MEL-5): > 100 µM (inactive) | GI50 (DU-145): > 100 µM (inactive) | GI50 (PC-3): > 100 µM (inactive) | GI50 (HCC 2998): > 100 µM (inactive) | GI50 (M14): > 100 µM (inactive) | GI50 (SF-539): > 100 µM (inactive) | GI50 (MDA-MB-435): > 100 µM (inactive) | GI50 (MOLT-4): 37.2 µM (inactive) | GI50 (NCI-H23): > 100 µM (inactive) | GI50 (U-251): > 100 µM (inactive) | GI50 (A549): > 100 µM (inactive) | GI50 (UO-31): > 100 µM (inactive) | GI50 (A498): > 100 µM (inactive) | GI50 (MDA-MB-231): > 100 µM (inactive) | GI50 (LOX IMVI): > 100 µM (inactive) | GI50 (CAKI-1): > 100 µM (inactive) | GI50 (SN12C): > 100 µM (inactive) | GI50 (IGROV-1): 75.5 µM (inactive) | GI50 (SK-OV-3): > 100 µM (inactive) | GI50 (786-0): > 100 µM (inactive) | GI50 (NCI-H226): > 100 µM (inactive) | GI50 (MDA-N): > 100 µM (inactive) | GI50 (NCI/ADR-RES): > 100 µM (inactive) | GI50 (T47D): > 100 µM (inactive) | GI50 (SK-MEL-2): > 100 µM (inactive) | GI50 (COLO 205): > 100 µM (inactive) | GI50 (SNB-19): > 100 µM (inactive) | GI50 (K562): 49 µM (inactive) | GI50 (MCF7): > 100 µM (inactive) | GI50 (SF-268): > 100 µM (inactive) | GI50 (OVCAR-4): > 100 µM (inactive) | GI50 (HL-60): > 100 µM (inactive) | GI50 (HCT-15): > 100 µM | GI50 (BT-549): > 100 µM (inactive) | GI50 (SK-MEL-28): > 100 µM (inactive) | GI50 (OVCAR-5): > 100 µM (inactive) | GI50 (HCT-116): > 100 µM (inactive) | GI50 (HT-29): > 100 µM (inactive) | GI50 (UACC-257): > 100 µM (inactive)
